Source: patent US6274715A, “Tricyclic erythromycin derivatives” (priority 1997, dated 2001)
Converted amounts (≈) assume the structure as drawn.

How the values were obtained:
Type in all cases: cell-based
PSEUDOMONAS CEPACIA 296I = assay: In vitro antibacterial activity, MIC, BHI agar dilution; settings: P. cepacia 296I, unit assumed
[1] = system: STREPTOCOCCUS PYOGENES EES61; assay: as above; settings: S. pyogenes EES61, unit assumed
[2] = system: PSEUDOMONAS AERUGINOSA 5007; assay: as above; settings: P. aeruginosa 5007, unit assumed
CANDIDA ALBICANS CCH 442 = assay: as above; settings: C. albicans CCH 442, unit assumed
[3] = system: MYCOBACTERIUM SMEGMATIS ATCC 114; assay: as above; settings: M. smegmatis ATCC 114, unit assumed
[4] = system: STREPTOCOCCUS BOVIS A-5169; assay: as above; settings: S. bovis A-5169, unit assumed
[5] = system: STAPHYLOCOCCUS AUREUS 1775; assay: as above; settings: S. aureus 1775, unit assumed
[6] = system: STREPTOCOCCUS PYOGENES PIU 2548; assay: as above; settings: S. pyogenes PIU 2548, unit assumed
[7] = system: ENTEROBACTER AEROGENES ATCC 13048; assay: as above; settings: E. aerogenes ATCC 13048, unit assumed
ESCHERICHIA COLI H560 = assay: as above; settings: E. coli H560, unit assumed
[8] = system: STAPHYLOCOCCUS EPIDERMIDIS 3519; settings: S. epidermidis 3519; BHI agar; unit assumed
[9] = system: STAPHYLOCOCCUS AUREUS A5177; assay: In vitro antibacterial activity, MIC, BHI agar dilution; settings: S. aureus A5177, unit assumed
[10] = system: PSEUDOMONAS AERUGINOSA BMH10; assay: as above; settings: P. aeruginosa BMH10, unit assumed
[11] = system: STAPHYLOCOCCUS AUREUS ATCC 6538P; assay: as above; settings: S. aureus ATCC 6538P, 35-37° C., 20 to 24 hours, unit assumed
ESCHERICHIA COLI DC-2 = assay: as above; settings: E. coli DC-2, unit assumed
[12] = system: STAPHYLOCOCCUS AUREUS CMX 642A; assay: as above; settings: S. aureus CMX 642A, unit assumed
[13] = system: STAPHYLOCOCCUS AUREUS CMX 553; assay: as above; settings: S. aureus CMX 553, unit assumed
ESCHERICHIA COLI SS = assay: as above; settings: E. coli SS, unit assumed
[14] = system: PSEUDOMONAS AERUGINOSA DPHD-5263; assay: as above; settings: P. aeruginosa DPHD-5263, unit assumed
[15] = system: STREPTOCOCCUS PYOGENES 930; assay: as above; settings: S. pyogenes 930, unit assumed
[16] = system: KLEBSIELLA PNEUMONIAE ATCC 8045; assay: as above; settings: K. pneumoniae ATCC 8045, unit assumed
M[…] ATCC 9341 = assay: as above; settings: M. luteus ATCC 9341, unit assumed
Outline: (§1)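 BHI agar dilution, 12 plates; inoculum 1:100 (1:10 slow-growing strains), Steers replicator; 35-37° C, 20-24 h. MIC = lowest conc. with no growth/slight haze/sparse colonies vs growth control, visual read. Erythromycin A reference plate.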

M[…] ATCC 4698 = assay: as above; settings: M. luteus ATCC 4698, unit assumed
Outline: as §1

EN[…] ATCC 8043 = assay: as above; settings: E. faecium ATCC 8043, unit assumed
Outline: as §1

STR[…] 508 = assay: as above; settings: S. agalactiae CMX 508, unit assumed
Outline: as §1

[17] = system: PSEUDOMONAS AERUGINOSA K799/WT; assay: as above; settings: P. aeruginosa K799/WT, unit assumed
[18] = system: PSEUDOMONAS AERUGINOSA K799/61; assay: as above; settings: P. aeruginosa K799/61, unit assumed
ESCHERICHIA COLI KNK 437 = settings: E. coli KNK 437; BHI agar; unit assumed
[19] = system: STAPHYLOCOCCUS AUREUS A-5278; assay: In vitro antibacterial activity, MIC, BHI agar dilution; settings: S. aureus A-5278, unit assumed
ESCHERICHIA COLI JUHL = settings: E. coli JUHL; BHI agar; unit assumed
[20] = system: STAPHYLOCOCCUS AUREUS NCTC10649M; assay: In vitro antibacterial activity, MIC, BHI agar dilution; settings: S. aureus NCTC10649M, unit assumed
[21] = system: PROVIDENCIA STUARTII CMX 640; settings: P. stuartii CMX 640; BHI agar; unit assumed
[22] = system: PSEUDOMONAS AERUGINOSA DPHD-2862; assay: In vitro antibacterial activity, MIC, BHI agar dilution; settings: P. aeruginosa DPHD-2862, unit assumed

CCC1OC(=O)C(C)C(=O)C(C)C(OC2OC(C)CC(N(C)C)C2O)C(C)(OC)CC(C)C2=NC(COCc3ccc(N(C)C)cc3)CN3C(=O)OC1(C)C3C2C (stereo not drawn) [Example 76]
MIC (PSEUDOMONAS CEPACIA 296I): > 100 µg/mL | MIC [1]: 0.1 µg/mL (≈ 0.125 µM) | MIC [2]: > 100 µg/mL | MIC (CANDIDA ALBICANS CCH 442): > 100 µg/mL | MIC [3]: 6.2 µg/mL (≈ 7.74 µM) | MIC [4]: 0.01 µg/mL (≈ 0.0125 µM) | MIC [5]: > 100 µg/mL | MIC [6]: 0.39 µg/mL (≈ 0.487 µM) | MIC [7]: > 100 µg/mL | MIC (ESCHERICHIA COLI H560): 50 µg/mL (≈ 62.4 µM) | MIC [8]: 0.39 µg/mL (≈ 0.487 µM) | MIC [9]: 0.39 µg/mL (≈ 0.487 µM) | MIC [10]: > 100 µg/mL | MIC [11]: 0.39 µg/mL (≈ 0.487 µM) | MIC (ESCHERICHIA COLI DC-2): > 100 µg/mL | MIC [12]: 0.39 µg/mL (≈ 0.487 µM) | MIC [13]: 0.39 µg/mL (≈ 0.487 µM) | MIC (ESCHERICHIA COLI SS): 0.39 µg/mL (≈ 0.487 µM) | MIC [14]: > 100 µg/mL | MIC [15]: > 100 µg/mL | MIC [16]: > 100 µg/mL | MIC (M[…] ATCC 9341): 0.2 µg/mL (≈ 0.25 µM) | MIC (M[…] ATCC 4698): 0.39 µg/mL (≈ 0.487 µM) | MIC (EN[…] ATCC 8043): 0.1 µg/mL (≈ 0.125 µM) | MIC (STR[…] 508): 0.1 µg/mL (≈ 0.125 µM) | MIC [17]: > 100 µg/mL | MIC [18]: 1.56 µg/mL (≈ 1.95 µM) | MIC (ESCHERICHIA COLI KNK 437): > 100 µg/mL | MIC [19]: > 100 µg/mL | MIC (ESCHERICHIA COLI JUHL): > 100 µg/mL | MIC [20]: 0.2 µg/mL (≈ 0.25 µM) | MIC [21]: > 100 µg/mL | MIC [22]: > 100 µg/mL

CC[C@H]1OC(=O)[C@H](C)C(=O)[C@H](C)[C@@H](O[C@@H]2O[C@H](C)C[C@H](N(C)C)[C@H]2O)[C@](C)(OC)C[C@@H](C)C2=N[C@@H](COCc3ccccc3)CN3C(=O)O[C@@]1(C)[C@H]3[C@H]2C [Example 89]
MIC (PSEUDOMONAS CEPACIA 296I): 25 µg/mL (≈ 33 µM) | MIC [1]: 0.02 µg/mL (≈ 0.0264 µM) | MIC [2]: > 100 µg/mL | MIC (CANDIDA ALBICANS CCH 442): > 100 µg/mL | MIC [3]: 0.78 µg/mL (≈ 1.03 µM) | MIC [4]: 0.01 µg/mL (≈ 0.0132 µM) | MIC [5]: > 100 µg/mL | MIC [6]: 0.2 µg/mL (≈ 0.264 µM) | MIC [7]: > 100 µg/mL | MIC (ESCHERICHIA COLI H560): 25 µg/mL (≈ 33 µM) | MIC [8]: 0.39 µg/mL (≈ 0.515 µM) | MIC [9]: 0.39 µg/mL (≈ 0.515 µM) | MIC [10]: > 100 µg/mL | MIC [11]: 0.39 µg/mL (≈ 0.515 µM) | MIC (ESCHERICHIA COLI DC-2): 100 µg/mL (≈ 132 µM) | MIC [12]: 0.39 µg/mL (≈ 0.515 µM) | MIC [13]: 0.39 µg/mL (≈ 0.515 µM) | MIC (ESCHERICHIA COLI SS): 0.39 µg/mL (≈ 0.515 µM) | MIC [14]: 100 µg/mL (≈ 132 µM) | MIC [15]: 100 µg/mL (≈ 132 µM) | MIC [16]: > 100 µg/mL | MIC (M[…] ATCC 9341): 0.05 µg/mL (≈ 0.066 µM) | MIC (M[…] ATCC 4698): 0.39 µg/mL (≈ 0.515 µM) | MIC (EN[…] ATCC 8043): 0.1 µg/mL (≈ 0.132 µM) | MIC (STR[…] 508): 0.01 µg/mL (≈ 0.0132 µM) | MIC [17]: > 100 µg/mL | MIC [18]: 1.56 µg/mL (≈ 2.06 µM) | MIC (ESCHERICHIA COLI KNK 437): 100 µg/mL (≈ 132 µM) | MIC [19]: > 100 µg/mL | MIC (ESCHERICHIA COLI JUHL): 100 µg/mL (≈ 132 µM) | MIC [20]: 0.39 µg/mL (≈ 0.515 µM) | MIC [21]: > 100 µg/mL | MIC [22]: > 100 µg/mL

CC[C@H]1OC(=O)[C@H](C)C(=O)[C@H](C)[C@@H](O[C@@H]2O[C@H](C)C[C@H](N(C)C)[C@H]2O)[C@](C)(OC)C[C@@H](C)C2=N[C@H](CN3CCN(C)CC3)CN3C(=O)O[C@@]1(C)[C@H]3[C@H]2C [Example 93]
MIC (PSEUDOMONAS CEPACIA 296I): > 100 µg/mL | MIC [1]: 0.02 µg/mL (≈ 0.0267 µM) | MIC [2]: > 100 µg/mL | MIC (CANDIDA ALBICANS CCH 442): > 100 µg/mL | MIC [3]: 12.5 µg/mL (≈ 16.7 µM) | MIC [4]: 0.02 µg/mL (≈ 0.0267 µM) | MIC [5]: > 100 µg/mL | MIC [6]: 3.1 µg/mL (≈ 4.13 µM) | MIC [7]: > 100 µg/mL | MIC (ESCHERICHIA COLI H560): 100 µg/mL (≈ 133 µM) | MIC [8]: 0.78 µg/mL (≈ 1.04 µM) | MIC [9]: 0.78 µg/mL (≈ 1.04 µM) | MIC [10]: > 100 µg/mL | MIC [11]: 0.78 µg/mL (≈ 1.04 µM) | MIC (ESCHERICHIA COLI DC-2): > 100 µg/mL | MIC [12]: 0.78 µg/mL (≈ 1.04 µM) | MIC [13]: 0.78 µg/mL (≈ 1.04 µM) | MIC (ESCHERICHIA COLI SS): 0.78 µg/mL (≈ 1.04 µM) | MIC [14]: > 100 µg/mL | MIC [15]: > 100 µg/mL | MIC [16]: > 100 µg/mL | MIC (M[…] ATCC 9341): 0.1 µg/mL (≈ 0.133 µM) | MIC (M[…] ATCC 4698): 0.78 µg/mL (≈ 1.04 µM) | MIC (EN[…] ATCC 8043): 0.39 µg/mL (≈ 0.52 µM) | MIC (STR[…] 508): 0.1 µg/mL (≈ 0.133 µM) | MIC [17]: > 100 µg/mL | MIC [18]: 3.1 µg/mL (≈ 4.13 µM) | MIC (ESCHERICHIA COLI KNK 437): > 100 µg/mL | MIC [19]: > 100 µg/mL | MIC (ESCHERICHIA COLI JUHL): > 100 µg/mL | MIC [20]: 0.78 µg/mL (≈ 1.04 µM) | MIC [21]: > 100 µg/mL | MIC [22]: > 100 µg/mL
